Experiments:
Test in all cases: IA-DTB cysteine engagement
Format in all cases: binding
Details in all cases: 22Rv1 cells, 20 μM probe, 1 h, relative to DMSO
[1] = target: T1, HARS2_C175 (Homo sapiens, UniProt P49590)
T1 construct: endogenous in cells; host or cells: 22Rv1
T1 sequence (P49590 34-506): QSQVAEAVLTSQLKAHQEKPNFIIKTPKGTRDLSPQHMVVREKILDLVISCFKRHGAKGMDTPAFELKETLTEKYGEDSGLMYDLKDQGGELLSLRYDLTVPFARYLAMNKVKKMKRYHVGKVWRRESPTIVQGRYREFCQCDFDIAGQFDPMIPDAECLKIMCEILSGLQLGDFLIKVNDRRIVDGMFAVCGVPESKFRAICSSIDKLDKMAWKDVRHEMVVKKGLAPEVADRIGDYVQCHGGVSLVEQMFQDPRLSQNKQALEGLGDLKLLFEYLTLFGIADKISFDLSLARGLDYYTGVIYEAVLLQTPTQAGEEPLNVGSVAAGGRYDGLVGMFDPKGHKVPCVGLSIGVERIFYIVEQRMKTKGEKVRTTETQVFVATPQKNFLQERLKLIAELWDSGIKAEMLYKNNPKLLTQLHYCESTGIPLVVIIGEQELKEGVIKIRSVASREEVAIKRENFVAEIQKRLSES
Summary of the method: (§1)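 First, cells are exposed to electrophilic probes in situ. Next, lysates are labeled with IA-DTB (1 h, ambient temperature), reduced, alkylated and trypsin-digested. Then, IA-DTB peptides are enriched on streptavidin, TMT-labeled and analyzed, with ratios taken against DMSO channels.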

[2] = target: T2, GSTO1_C32 (Homo sapiens, UniProt P78417)
T2 construct: endogenous in cells; host or cells: 22Rv1
T2 sequence (P78417 1-241): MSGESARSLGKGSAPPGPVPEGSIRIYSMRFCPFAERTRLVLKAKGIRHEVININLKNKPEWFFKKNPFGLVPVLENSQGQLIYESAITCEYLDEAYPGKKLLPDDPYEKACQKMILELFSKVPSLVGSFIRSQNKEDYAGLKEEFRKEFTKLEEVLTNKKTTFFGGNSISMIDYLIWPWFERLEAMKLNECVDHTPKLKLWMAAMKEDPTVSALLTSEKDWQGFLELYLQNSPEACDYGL
Summary of the method: as §1

[3] = target: T3, NT5DC1_C119 (Homo sapiens, UniProt Q5TFE4)
T3 construct: endogenous in cells; host or cells: 22Rv1
T3 sequence (Q5TFE4 1-455): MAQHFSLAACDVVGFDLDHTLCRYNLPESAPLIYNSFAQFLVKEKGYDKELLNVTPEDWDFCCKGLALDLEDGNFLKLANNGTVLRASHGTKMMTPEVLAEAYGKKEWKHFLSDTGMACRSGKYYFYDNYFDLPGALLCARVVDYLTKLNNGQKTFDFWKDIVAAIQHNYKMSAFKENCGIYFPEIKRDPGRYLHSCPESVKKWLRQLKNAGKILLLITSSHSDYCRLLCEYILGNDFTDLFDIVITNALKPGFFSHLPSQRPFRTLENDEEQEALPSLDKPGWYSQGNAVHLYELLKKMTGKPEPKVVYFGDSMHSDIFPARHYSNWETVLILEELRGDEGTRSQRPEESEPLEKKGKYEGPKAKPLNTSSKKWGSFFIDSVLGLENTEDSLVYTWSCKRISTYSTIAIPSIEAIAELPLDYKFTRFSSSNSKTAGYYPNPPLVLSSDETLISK
Summary of the method: as §1

[4] = target: T4, LAPTM4A_C20 (Homo sapiens, UniProt Q15012)
T4 construct: endogenous in cells; host or cells: 22Rv1
Summary of the method: as §1

[5] = target: T5, ITPR2_C579 (Homo sapiens, UniProt Q14571)
T5 construct: endogenous in cells; host or cells: 22Rv1
T5 sequence (Q14571 whole entry): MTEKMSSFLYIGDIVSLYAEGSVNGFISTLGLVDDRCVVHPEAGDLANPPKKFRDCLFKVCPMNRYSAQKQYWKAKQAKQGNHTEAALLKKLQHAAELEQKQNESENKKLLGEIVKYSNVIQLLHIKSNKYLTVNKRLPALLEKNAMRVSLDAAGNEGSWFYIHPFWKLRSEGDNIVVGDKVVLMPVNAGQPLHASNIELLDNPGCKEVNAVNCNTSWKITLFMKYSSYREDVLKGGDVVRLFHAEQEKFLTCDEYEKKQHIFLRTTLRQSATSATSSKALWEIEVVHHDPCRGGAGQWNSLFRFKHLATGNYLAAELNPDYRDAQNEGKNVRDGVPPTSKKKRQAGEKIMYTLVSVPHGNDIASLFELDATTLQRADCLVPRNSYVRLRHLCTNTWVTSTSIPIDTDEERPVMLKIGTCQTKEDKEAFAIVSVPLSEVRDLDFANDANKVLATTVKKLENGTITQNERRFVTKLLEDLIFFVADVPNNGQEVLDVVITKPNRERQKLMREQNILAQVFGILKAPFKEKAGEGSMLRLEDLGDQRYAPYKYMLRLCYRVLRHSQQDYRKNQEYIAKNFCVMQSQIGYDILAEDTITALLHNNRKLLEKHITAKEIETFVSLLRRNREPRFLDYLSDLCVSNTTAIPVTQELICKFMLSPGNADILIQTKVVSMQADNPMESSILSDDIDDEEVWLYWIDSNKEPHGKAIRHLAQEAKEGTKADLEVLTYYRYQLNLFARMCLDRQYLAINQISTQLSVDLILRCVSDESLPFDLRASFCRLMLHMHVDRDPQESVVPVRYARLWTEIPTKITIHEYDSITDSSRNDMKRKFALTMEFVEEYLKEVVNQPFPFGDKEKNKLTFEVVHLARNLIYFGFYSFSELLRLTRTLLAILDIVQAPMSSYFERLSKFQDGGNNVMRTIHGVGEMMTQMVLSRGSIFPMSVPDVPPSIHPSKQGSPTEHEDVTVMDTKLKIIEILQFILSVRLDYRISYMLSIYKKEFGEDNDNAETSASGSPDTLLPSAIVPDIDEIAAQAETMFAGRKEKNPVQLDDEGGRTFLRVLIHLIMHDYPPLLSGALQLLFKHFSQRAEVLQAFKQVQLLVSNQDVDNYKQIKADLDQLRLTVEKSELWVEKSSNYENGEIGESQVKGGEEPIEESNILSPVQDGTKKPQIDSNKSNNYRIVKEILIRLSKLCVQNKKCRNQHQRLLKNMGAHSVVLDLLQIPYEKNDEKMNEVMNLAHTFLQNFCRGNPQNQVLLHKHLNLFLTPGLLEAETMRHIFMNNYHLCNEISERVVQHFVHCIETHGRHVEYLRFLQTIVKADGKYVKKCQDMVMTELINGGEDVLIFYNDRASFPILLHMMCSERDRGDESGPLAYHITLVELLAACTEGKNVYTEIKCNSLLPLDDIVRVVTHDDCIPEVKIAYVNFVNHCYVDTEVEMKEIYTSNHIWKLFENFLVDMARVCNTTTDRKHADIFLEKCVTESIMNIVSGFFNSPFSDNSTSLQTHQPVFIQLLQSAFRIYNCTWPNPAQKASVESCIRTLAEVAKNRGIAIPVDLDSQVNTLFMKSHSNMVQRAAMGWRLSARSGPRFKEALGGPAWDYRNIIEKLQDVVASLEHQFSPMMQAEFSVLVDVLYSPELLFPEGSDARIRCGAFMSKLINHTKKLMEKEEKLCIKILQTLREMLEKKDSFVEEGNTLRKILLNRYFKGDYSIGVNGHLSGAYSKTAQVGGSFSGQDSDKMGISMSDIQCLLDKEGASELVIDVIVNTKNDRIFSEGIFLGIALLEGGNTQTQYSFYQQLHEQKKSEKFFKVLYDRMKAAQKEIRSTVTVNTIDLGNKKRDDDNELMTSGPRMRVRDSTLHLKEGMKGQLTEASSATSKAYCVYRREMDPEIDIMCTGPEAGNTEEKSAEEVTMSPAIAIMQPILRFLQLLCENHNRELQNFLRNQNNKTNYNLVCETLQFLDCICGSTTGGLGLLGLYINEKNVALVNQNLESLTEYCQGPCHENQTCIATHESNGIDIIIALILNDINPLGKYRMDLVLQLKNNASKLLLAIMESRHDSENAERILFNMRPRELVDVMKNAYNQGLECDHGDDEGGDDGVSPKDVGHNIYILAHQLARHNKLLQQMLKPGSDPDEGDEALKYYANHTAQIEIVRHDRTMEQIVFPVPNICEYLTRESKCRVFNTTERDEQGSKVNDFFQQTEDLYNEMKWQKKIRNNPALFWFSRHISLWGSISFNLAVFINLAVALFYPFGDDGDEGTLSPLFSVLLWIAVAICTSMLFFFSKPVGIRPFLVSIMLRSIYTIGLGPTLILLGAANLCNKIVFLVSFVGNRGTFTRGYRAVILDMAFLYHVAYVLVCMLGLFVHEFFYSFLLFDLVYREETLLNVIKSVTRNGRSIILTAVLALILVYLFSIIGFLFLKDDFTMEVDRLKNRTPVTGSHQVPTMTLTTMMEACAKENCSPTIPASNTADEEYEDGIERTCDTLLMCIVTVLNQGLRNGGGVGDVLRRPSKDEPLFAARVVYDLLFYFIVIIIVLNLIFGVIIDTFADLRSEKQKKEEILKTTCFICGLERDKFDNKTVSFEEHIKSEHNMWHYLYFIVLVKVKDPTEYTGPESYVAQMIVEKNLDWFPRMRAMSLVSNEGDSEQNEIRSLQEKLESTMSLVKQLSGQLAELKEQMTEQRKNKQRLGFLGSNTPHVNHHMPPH
Summary of the method: as §1

Row | % engagement HARS2_C175 [1] [%] | % engagement GSTO1_C32 [2] [%] | % engagement NT5DC1_C119 [3] [%] | % engagement LAPTM4A_C20 [4] [%] | % engagement ITPR2_C579 [5] [%] | SMILES
1 | 44.5 | 80.5 | 79.5 | 70.5 | 70.75 | C=CC(=O)N1C[C@H](c2ccc(Br)cc2)[C@H]1C(=O)Nc1cccc2cccnc12 [MY-3B, (2S,3S)-1-acryloyl-3-(4-bromophenyl)-N-(quinolin-8-yl)azetidine-2-carboxamide]
2 | 67 | 82 | 63.25 | 55 | 11.25 | C=CC(=O)N1C[C@H](c2ccc(Br)cc2)[C@@H]1C(=O)Nc1cccc2cccnc12 [MY-1B, (2R,3S)-1-acryloyl-3-(4-bromophenyl)-N-(quinolin-8-yl)azetidine-2-carboxamide]
3 | 11.5 | 79 | 93.5 | 49.5 | 4.5 | C=CC(=O)N1C[C@H](c2ccc(Br)cc2)[C@H]1C(=O)Nc1cccc2cccnc12 [MY-3A, (2S,3S)-1-acryloyl-3-(4-bromophenyl)-N-(quinolin-8-yl)azetidine-2-carboxamide]
4 | 100 | 22 | 49 | 69 | 7.75 | C=CC(=O)N1C[C@@H](c2ccc(Br)cc2)[C@H]1C(=O)Nc1cccc2cccnc12 [MY-1A, (2S,3R)-1-acryloyl-3-(4-bromophenyl)-N-(quinolin-8-yl)azetidine-2-carboxamide]

From patent publication US20250034216A1, “STEREOSELECTIVE COVALENT LIGANDS FOR ONCOGENIC AND IMMUNOLOGICAL PROTEINS” (The Scripps Research Institute, priority 2021, published 2025)
